# Test results taken from ChEMBL document CHEMBL1201862, “PubChem BioAssay data set” (2004).
#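 How tested: cells in 96-well plates exposed to compound for 48 hours at five concentrations. GI50 = concentration required for 50% inhibition of growth.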 Activity calls are given as the source filed them. No stated cut-off is given here; in the data, active = GI50 up to about 1.1 µM and inactive = higher.
# Assays:
# Assay in all cases: NCI anticancer screen, dose series, 48 h
# KM12 = test system: KM12
# OVCAR-4 = test system: OVCAR-4
# MOLT-4 = test system: MOLT-4
# RPMI-8226 = test system: RPMI-8226
# HL-60 = test system: HL-60
# K562 = test system: K562
# M14 = test system: M14
# SF-268 = test system: SF-268
# HOP-92 = test system: HOP-92
# ACHN = test system: ACHN
# NCI/ADR-RES = test system: NCI/ADR-RES
# LOX IMVI = test system: LOX IMVI
# OVCAR-8 = test system: OVCAR-8
# SK-MEL-28 = test system: SK-MEL-28
# SNB-19 = test system: SNB-19
# SK-OV-3 = test system: SK-OV-3
# HT-29 = test system: HT-29
# HOP-62 = test system: HOP-62
# SN12C = test system: SN12C
# CAKI-1 = test system: CAKI-1
# A549 = test system: A549
# OVCAR-5 = test system: OVCAR-5
# U-251 = test system: U-251
# 786-0 = test system: 786-0
# NCI-H23 = test system: NCI-H23
# NCI-H226 = test system: NCI-H226
# A498 = test system: A498
# NCI-H522 = test system: NCI-H522
# RXF 393 = test system: RXF 393
# HCT-15 = test system: HCT-15
# T47D = test system: T47D
# CCRF-CEM = test system: CCRF-CEM
# SF-295 = test system: SF-295
# SK-MEL-5 = test system: SK-MEL-5
# SK-MEL-2 = test system: SK-MEL-2
# UACC-62 = test system: UACC-62
# UO-31 = test system: UO-31
# NCI-H460 = test system: NCI-H460
# Hs-578T = test system: Hs-578T
# TK-10 = test system: TK-10
# MDA-MB-435 = test system: MDA-MB-435
# SR = test system: SR
# MDA-N = test system: MDA-N
# MCF7 = test system: MCF7
# IGROV-1 = test system: IGROV-1
# Malme-3M = test system: Malme-3M
# HCC 2998 = test system: HCC 2998
# PC-3 = test system: PC-3
# COLO 205 = test system: COLO 205
# EKVX = test system: EKVX
# UACC-257 = test system: UACC-257
# SW-620 = test system: SW-620
# SNB-75 = test system: SNB-75
# DU-145 = test system: DU-145
# HCT-116 = test system: HCT-116
# MDA-MB-231 = test system: MDA-MB-231
# BT-549 = test system: BT-549
# SF-539 = test system: SF-539
# OVCAR-3 = test system: OVCAR-3
structure (smiles),measurement,setting,value
Cc1cn(CC2=NCCN2)c(=O)[nH]c1=O,GI50,KM12,> 100 µM (inactive)
same,GI50,OVCAR-4,> 100 µM (inactive)
same,GI50,MOLT-4,> 100 µM (inactive)
same,GI50,RPMI-8226,> 100 µM (inactive)
same,GI50,HL-60,> 100 µM (inactive)
same,GI50,K562,> 100 µM (inactive)
same,GI50,M14,> 100 µM (inactive)
same,GI50,SF-268,> 100 µM (inactive)
same,GI50,HOP-92,> 100 µM (inactive)
same,GI50,ACHN,> 100 µM (inactive)
same,GI50,NCI/ADR-RES,> 100 µM (inactive)
same,GI50,LOX IMVI,> 100 µM (inactive)
same,GI50,OVCAR-8,> 100 µM (inactive)
same,GI50,SK-MEL-28,> 100 µM (inactive)
same,GI50,SNB-19,> 100 µM (inactive)
same,GI50,SK-OV-3,> 100 µM (inactive)
same,GI50,HT-29,> 100 µM (inactive)
same,GI50,HOP-62,> 100 µM (inactive)
same,GI50,SN12C,> 100 µM (inactive)
same,GI50,CAKI-1,> 100 µM (inactive)
same,GI50,A549,> 100 µM (inactive)
same,GI50,OVCAR-5,> 100 µM (inactive)
same,GI50,U-251,> 100 µM (inactive)
same,GI50,786-0,> 100 µM (inactive)
same,GI50,NCI-H23,> 100 µM (inactive)
same,GI50,NCI-H226,> 100 µM (inactive)
same,GI50,A498,> 100 µM (inactive)
same,GI50,NCI-H522,> 100 µM (inactive)
same,GI50,RXF 393,> 100 µM (inactive)
same,GI50,HCT-15,> 100 µM
same,GI50,T47D,> 100 µM (inactive)
same,GI50,CCRF-CEM,> 100 µM (inactive)
same,GI50,SF-295,> 100 µM (inactive)
same,GI50,SK-MEL-5,> 100 µM (inactive)
same,GI50,SK-MEL-2,> 100 µM (inactive)
same,GI50,UACC-62,> 100 µM (inactive)
same,GI50,UO-31,> 100 µM (inactive)
same,GI50,NCI-H460,> 100 µM (inactive)
same,GI50,Hs-578T,> 100 µM (inactive)
same,GI50,TK-10,> 100 µM (inactive)
same,GI50,MDA-MB-435,> 100 µM (inactive)
same,GI50,SR,> 100 µM (inactive)
same,GI50,MDA-N,> 100 µM (inactive)
same,GI50,MCF7,> 100 µM (inactive)
same,GI50,IGROV-1,> 100 µM (inactive)
same,GI50,Malme-3M,> 100 µM (inactive)
same,GI50,HCC 2998,> 100 µM (inactive)
same,GI50,PC-3,> 100 µM (inactive)
same,GI50,COLO 205,> 100 µM (inactive)
same,GI50,EKVX,> 100 µM (inactive)
same,GI50,UACC-257,> 100 µM (inactive)
same,GI50,SW-620,> 100 µM (inactive)
same,GI50,SNB-75,> 100 µM (inactive)
same,GI50,DU-145,> 100 µM (inactive)
same,GI50,HCT-116,> 100 µM (inactive)
same,GI50,MDA-MB-231,> 100 µM (inactive)
same,GI50,BT-549,> 100 µM (inactive)
c1ccc2c(-c3cnc(-c4c[nH]c5ccccc45)cn3)c[nH]c2c1,GI50,KM12,74.1 µM (inactive)
same,GI50,OVCAR-4,> 100 µM (inactive)
same,GI50,RPMI-8226,45.3 µM (inactive)
same,GI50,K562,18.8 µM (inactive)
same,GI50,M14,29.1 µM (inactive)
same,GI50,SF-268,50.6 µM (inactive)
same,GI50,HOP-92,28.6 µM (inactive)
same,GI50,ACHN,65.5 µM (inactive)
same,GI50,NCI/ADR-RES,74.5 µM (inactive)
same,GI50,LOX IMVI,29.3 µM (inactive)
same,GI50,OVCAR-8,39.4 µM (inactive)
same,GI50,SK-MEL-28,35.6 µM (inactive)
same,GI50,SNB-19,58.7 µM (inactive)
same,GI50,SK-OV-3,49.1 µM (inactive)
same,GI50,HOP-62,37.8 µM (inactive)
same,GI50,SN12C,31.4 µM (inactive)
same,GI50,CAKI-1,74.8 µM (inactive)
same,GI50,A549,> 100 µM (inactive)
same,GI50,OVCAR-5,46.1 µM (inactive)
same,GI50,SF-539,23.6 µM (inactive)
same,GI50,U-251,49.7 µM (inactive)
same,GI50,786-0,38.1 µM (inactive)
same,GI50,NCI-H23,61.8 µM (inactive)
same,GI50,A498,> 100 µM (inactive)
same,GI50,NCI-H522,28.6 µM (inactive)
same,GI50,RXF 393,26.7 µM (inactive)
same,GI50,HCT-15,58.6 µM
same,GI50,T47D,66.5 µM (inactive)
same,GI50,SF-295,20.2 µM (inactive)
same,GI50,SK-MEL-5,50.1 µM (inactive)
same,GI50,SK-MEL-2,70.3 µM (inactive)
same,GI50,UACC-62,32.8 µM (inactive)
same,GI50,UO-31,39.5 µM (inactive)
same,GI50,NCI-H460,46.9 µM (inactive)
same,GI50,OVCAR-3,27.2 µM (inactive)
same,GI50,Hs-578T,57.8 µM (inactive)
same,GI50,TK-10,47.1 µM (inactive)
same,GI50,MDA-MB-435,24.9 µM (inactive)
same,GI50,SR,30 µM (inactive)
same,GI50,MDA-N,19.1 µM (inactive)
same,GI50,MCF7,6.61 µM (inactive)
same,GI50,IGROV-1,30.8 µM (inactive)
same,GI50,Malme-3M,38.9 µM (inactive)
same,GI50,HCC 2998,42.6 µM (inactive)
same,GI50,PC-3,38 µM (inactive)
same,GI50,COLO 205,34.4 µM (inactive)
same,GI50,EKVX,73.6 µM (inactive)
same,GI50,UACC-257,43.4 µM (inactive)
same,GI50,SW-620,18.9 µM (inactive)
same,GI50,SNB-75,22.6 µM (inactive)
same,GI50,DU-145,> 100 µM (inactive)
same,GI50,HCT-116,5.2 µM (inactive)
same,GI50,MDA-MB-231,91 µM (inactive)
same,GI50,BT-549,> 100 µM (inactive)
Cc1cccc(NC(=O)/C=C/c2ccc([N+](=O)[O-])cc2)c1,GI50,KM12,> 33.3 µM (inactive)
same,GI50,OVCAR-4,> 41.4 µM (inactive)
same,GI50,MOLT-4,> 36.4 µM (inactive)
same,GI50,K562,> 29.4 µM (inactive)
same,GI50,M14,> 43.4 µM (inactive)
same,GI50,SF-268,38.3 µM (inactive)
same,GI50,HOP-92,15.8 µM (inactive)
same,GI50,ACHN,14.9 µM (inactive)
same,GI50,NCI/ADR-RES,29.8 µM (inactive)
same,GI50,LOX IMVI,> 36.3 µM (inactive)
same,GI50,OVCAR-8,> 37.2 µM (inactive)
same,GI50,SK-MEL-28,> 42 µM (inactive)
same,GI50,SNB-19,> 33.2 µM (inactive)
same,GI50,SK-OV-3,> 46.5 µM (inactive)
same,GI50,HT-29,35 µM (inactive)
same,GI50,HOP-62,16.7 µM (inactive)
same,GI50,SN12C,> 41.2 µM (inactive)
same,GI50,CAKI-1,> 39.3 µM (inactive)
same,GI50,A549,> 41.7 µM (inactive)
same,GI50,OVCAR-5,> 42.6 µM (inactive)
same,GI50,SF-539,> 29.8 µM (inactive)
same,GI50,U-251,> 38 µM (inactive)
same,GI50,786-0,> 34.6 µM (inactive)
same,GI50,NCI-H23,16.4 µM (inactive)
same,GI50,NCI-H226,> 46.7 µM (inactive)
same,GI50,A498,> 100 µM (inactive)
same,GI50,NCI-H522,7.45 µM (inactive)
same,GI50,RXF 393,34 µM (inactive)
same,GI50,HCT-15,> 35.1 µM
same,GI50,T47D,> 37.8 µM (inactive)
same,GI50,CCRF-CEM,16 µM (inactive)
same,GI50,SF-295,29 µM (inactive)
same,GI50,SK-MEL-5,> 36.4 µM (inactive)
same,GI50,SK-MEL-2,20 µM (inactive)
same,GI50,UACC-62,> 41.9 µM (inactive)
same,GI50,UO-31,> 35.5 µM (inactive)
same,GI50,NCI-H460,> 43.5 µM (inactive)
same,GI50,OVCAR-3,12.5 µM (inactive)
same,GI50,Hs-578T,48.1 µM (inactive)
same,GI50,TK-10,> 41.5 µM (inactive)
same,GI50,MDA-MB-435,> 36.6 µM (inactive)
same,GI50,SR,11.7 µM (inactive)
same,GI50,MDA-N,> 30.7 µM (inactive)
same,GI50,MCF7,> 22.3 µM (inactive)
same,GI50,IGROV-1,18.5 µM (inactive)
same,GI50,Malme-3M,0.838 µM (active)
same,GI50,HCC 2998,16.6 µM (inactive)
same,GI50,PC-3,14.7 µM (inactive)
same,GI50,COLO 205,> 41.1 µM (inactive)
same,GI50,EKVX,23.2 µM (inactive)
same,GI50,UACC-257,> 39 µM (inactive)
same,GI50,SW-620,> 45.3 µM (inactive)
same,GI50,SNB-75,30.1 µM (inactive)
same,GI50,DU-145,> 38.7 µM (inactive)
same,GI50,HCT-116,> 36.9 µM (inactive)
same,GI50,MDA-MB-231,22.4 µM (inactive)
same,GI50,BT-549,> 34.5 µM (inactive)
